Assay results as given in US7741020B2, “Methods for detecting Lp-PLA2 activity and inhibition of Lp-PLA2 activity” (Glaxo Group Limited, priority 2004, dated 2010).
Values joined by “and” are separate entries in the source; they are usually repeats but may differ in a detail not shown here. Equal entries are not always repeated.

Key:
Lp-PLA2 [1] = target: T1, Lp-PLA2 (Homo sapiens, UniProt Q13093); assay: Auto PAF AH assay (Azwell kit, Olympus Au640 analyzer); format: biochemical; details: plasma of individual human subjects
T1 sequence (Q13093 22-441): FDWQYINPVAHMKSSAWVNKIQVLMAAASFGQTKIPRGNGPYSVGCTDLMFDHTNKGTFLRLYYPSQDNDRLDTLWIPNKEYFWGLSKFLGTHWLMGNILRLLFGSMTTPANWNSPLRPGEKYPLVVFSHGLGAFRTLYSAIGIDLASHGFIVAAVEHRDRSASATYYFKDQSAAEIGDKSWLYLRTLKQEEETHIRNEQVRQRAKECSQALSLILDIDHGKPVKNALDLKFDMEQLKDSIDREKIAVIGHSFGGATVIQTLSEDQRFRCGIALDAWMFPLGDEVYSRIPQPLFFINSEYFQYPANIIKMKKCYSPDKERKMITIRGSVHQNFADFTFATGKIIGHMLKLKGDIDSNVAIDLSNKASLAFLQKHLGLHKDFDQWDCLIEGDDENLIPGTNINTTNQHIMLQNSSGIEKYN
Method: The Auto PAF AH assay kit, manufactured by Azwell (Osaka, Japan), is commercially available in the United States through Karlan Research Products Corporation (Santa Rosa, Calif.).
Prepare the following reagents: • R1: Use this buffer solution as supplied in Azwell Auto PAF AH assay kit. Store at 4° C. Protect from light. • R2: Prepare the R2 working solution by mixing R2A and R2B (supplied in Azwell Auto PAF AH assay kit) in the proportion of 19:1, Store at 4° C. Protect from light. • 3. […] Briefly centrifuge to spin down fibrin clots/particles in the plasma. • 4. Place Sarstedt tubes containing plasma samples onto sample tubes that fit the instrument. Run plasma samples through the Au640 analyzer. After choosing the PAF AH assay program, the analytical procedure described below is performed automatically: • Test sample (2 μL)+R1 (240 μL), 37° C., 5 minutes [0-5 minutes] • Add R2 (80 μL), 37° C., 5 minutes [5-10 minutes] • Measure the absorbance at 410 nm and 480 nm [6-8 minutes] • Calculate PAF AH activity (IU/L) • 5.

Lp-PLA2 [2] = target: T1, Lp-PLA2; assay: High throughput radiometric assay for Lp-PLA2 activity (3H-PAF); format: biochemical; details: 50 mg, plasma of individual human subjects
Method: (cat #6005162) Reagents • HEPES (4-(2-hydroxyethyl)-1-piperazineethane sulfonic acid) Sigma Chemical Co., St. Louis Mo. […] (Cat # E7889; 0.5 M) • ^3H-Platelet Activating Factor, 1-O-Hexadecyl-[acetyl-^3H(N)], (^3H-PAF)-NEN Life Science Products, Roxbury, Mass. (Cat # NET-910, supplied as an ethanol solution, typically 0.1 mCi/mL; 250 uCi) • C16-PAF, (1-hexadecyl-2-acetyl-sn-glycero-3-phosphocholine): Avanti Polar Lipids, Alabaster, Ala. […] (Cat # T9159) Assay Buffer • 100 mM Hepes, pH 7.4 • 150 mM NaCl • 5 mM EDTA • Store it at room temperature Procedures • 1. Prepare a ^3H-PAF working solution (for 100 reactions): • a) Aliquot 480 μl ^3H-PAF (10 μM=0.1 mCi/ml at 10.0 Ci/mmol) and 125.3 μl of [C16]PAF (5.0 mg/ml; MW: 524) to a tube; • b) Mix and air dry in the hood; • c) Resuspend the dried pellets in 12.0 ml of assay buffer giving working solutions of 100 μM PAF (i.e. ^3H-PAF at 0.4 μM and cold [C16]PAF at 99.6 μM); • 2. Aliquot 5 μL of assay buffer (for Total counts and Blanks; n=8) or plasma samples in duplicates into a 96-well plate; • 3. Equilibrate the plate to 21° C.; • 4. Add 100 μL of the ^3H-PAF solution to each well, mix and incubate the plate at 21° C. for 5 minutes; • 5. […]; • 6. Add 25 μL of ice-cold TCA solution (56%) to each well, mix and incubate the plate in a refrigerator for 15 minutes; • 7. Centrifuge the plate at 6,000 g for 15 minutes at 4° C.; • 8. […] Add 10 μL of ^3H-PAF working solution to 6 Total Counts wells; • 10. […] Cover the plate with a plate tape and vortex mix at max speed for 10 minutes; • 12. […] Count with a TopCount scintillation counter for 2 minutes each; and • 14.

**Q.** For `COCCN1CCC(N(Cc2ccc(-c3ccc(C(F)(F)F)cc3)cc2)C(=O)Cn2c(SCc3cccc(F)c3F)cc(=O)c3ccccc32)CC1` [Formula I], which “% Inhibition Auto PAF AH” value (Lp-PLA2 [1]; 50 mg, 0.5 hr after dosing) is on record?
**A.** 10.84% and 0.65% and −6.65% and 10.66% and 8.03%

**Q.** And the “Lp-PLA2 Activity Auto PAF AH” value (Lp-PLA2 [1]; 50 mg, 0.5 hr after dosing)?
**A.** 456.50 nmol/min/mL and 308.00 nmol/min/mL and 393.00 nmol/min/mL and 272.50 nmol/min/mL and 647.00 nmol/min/mL

**Q.** What about the “% Inhibition Auto PAF AH” value (Lp-PLA2 [1]; 50 mg, 1 hr after dosing) of the same molecule?
**A.** 11.15% and 14.00% and 19.04%

**Q.** And the “Lp-PLA2 Activity Auto PAF AH” value (Lp-PLA2 [1]; 50 mg, 1 hr after dosing)?
**A.** 271.00 nmol/min/mL and 605.00 nmol/min/mL and 242.00 nmol/min/mL and 340.50 nmol/min/mL

**Q.** What about the “% Inhibition Auto PAF AH” value (Lp-PLA2 [1]; 50 mg, 2 hr after dosing) of the same molecule?
**A.** 10.98% and 20.47% and 9.03%

**Q.** And the “Lp-PLA2 Activity Auto PAF AH” value (Lp-PLA2 [1]; 50 mg, 2 hr after dosing)?
**A.** 271.50 nmol/min/mL and 559.50 nmol/min/mL and 282.00 nmol/min/mL and 348.00 nmol/min/mL

**Q.** And the “Lp-PLA2 Activity Auto PAF AH” value (Lp-PLA2 [1]; 50 mg, 3 hr after dosing)?
**A.** 277.50 nmol/min/mL and 602.50 nmol/min/mL and 435.00 nmol/min/mL and 287.50 nmol/min/mL and 348.00 nmol/min/mL

**Q.** And the “% Inhibition Auto PAF AH” value (Lp-PLA2 [1]; 50 mg, 4 hr after dosing)?
**A.** 15.90% and 10.52% and 0.32% and 8.14%

**Q.** What about the “Lp-PLA2 Activity Auto PAF AH” value (Lp-PLA2 [1]; 50 mg, 4 hr after dosing) of the same molecule?
**A.** 256.50 nmol/min/mL and 629.50 nmol/min/mL and 409.00 nmol/min/mL and 309.00 nmol/min/mL and 338.50 nmol/min/mL

**Q.** And the “% Inhibition Auto PAF AH” value (Lp-PLA2 [1]; 50 mg, 5 hr after dosing)?
**A.** 10.33% and 7.39% and 24.80% and 9.84% and 8.68%

**Q.** What about the “Lp-PLA2 Activity Auto PAF AH” value (Lp-PLA2 [1]; 50 mg, 5 hr after dosing) of the same molecule?
**A.** 273.50 nmol/min/mL and 651.50 nmol/min/mL and 385.00 nmol/min/mL and 279.50 nmol/min/mL and 336.50 nmol/min/mL

**Q.** What about the “% Inhibition Auto PAF AH” value (Lp-PLA2 [1]; 50 mg, 6 hr after dosing) of the same molecule?
**A.** 10.33% and 8.74% and 24.12% and 11.80%

**Q.** What about the “Lp-PLA2 Activity Auto PAF AH” value (Lp-PLA2 [1]; 50 mg, 6 hr after dosing) of the same molecule?
**A.** 273.50 nmol/min/mL and 642.00 nmol/min/mL and 388.50 nmol/min/mL and 306.50 nmol/min/mL and 325.00 nmol/min/mL

**Q.** What about the “% Inhibition Auto PAF AH” value (Lp-PLA2 [1]; 50 mg, 9 hr after dosing) of the same molecule?
**A.** 6.23% and 18.76% and 12.99% and 6.61% and 15.33%

**Q.** What about the “% Inhibition Auto PAF AH” value (Lp-PLA2 [1]; 50 mg, 12 hr after dosing) of the same molecule?
**A.** 14.26% and 18.76% and −8.39%

**Q.** What about the “Lp-PLA2 Activity Auto PAF AH” value (Lp-PLA2 [1]; 50 mg, 12 hr after dosing) of the same molecule?
**A.** 261.50 nmol/min/mL and 409.50 nmol/min/mL and 336.00 nmol/min/mL and 307.00 nmol/min/mL

**Q.** What about the “% Inhibition Auto PAF AH” value (Lp-PLA2 [1]; 120 mg, 0.5 hr after dosing) of the same molecule?
**A.** 15.42% and 8.74% and 9.58% and 6.66%

**Q.** And the “% Inhibition Auto PAF AH” value (Lp-PLA2 [1]; 120 mg, 1 hr after dosing)?
**A.** 11.34% and 7.73%

**Q.** What about the “% Inhibition Auto PAF AH” value (Lp-PLA2 [1]; 120 mg, 2 hr after dosing) of the same molecule?
**A.** 18.04% and 21.33% and 8.63% and 18.61% and 21.05%

**Q.** What about the “% Inhibition Auto PAF AH” value (Lp-PLA2 [1]; 120 mg, 3 hr after dosing) of the same molecule?
**A.** 12.42% and 16.24% and 5.90% and 14.65%

**Q.** And the “% Inhibition Auto PAF AH” value (Lp-PLA2 [1]; 120 mg, 5 hr after dosing)?
**A.** −1.63% and 5.62%

**Q.** What about the “Lp-PLA2 Activity Auto PAF AH” value (Lp-PLA2 [1]; 120 mg, 5 hr after dosing) of the same molecule?
**A.** 353.50 nmol/min/mL and 748.00 nmol/min/mL and 416.00 nmol/min/mL and 428.50 nmol/min/mL and 377.00 nmol/min/mL

**Q.** What about the “% Inhibition Auto PAF AH” value (Lp-PLA2 [1]; 120 mg, 6 hr after dosing) of the same molecule?
**A.** 13.73% and 2.99% and 6.47%

**Q.** What about the “Lp-PLA2 Activity Auto PAF AH” value (Lp-PLA2 [1]; 120 mg, 6 hr after dosing) of the same molecule?
**A.** 330.00 nmol/min/mL and 714.00 nmol/min/mL and 412.00 nmol/min/mL and 393.00 nmol/min/mL and 366.00 nmol/min/mL

**Q.** And the “% Inhibition Auto PAF AH” value (Lp-PLA2 [1]; 120 mg, 9 hr after dosing)?
**A.** 11.63%

**Q.** What about the “% Inhibition Auto PAF AH” value (Lp-PLA2 [1]; 120 mg, 12 hr after dosing) of the same molecule?
**A.** 7.06% and −3.52%

**Q.** And the “% Inhibition Radiometric” value (Lp-PLA2 [2]; 0.5 hr after dosing)?
**A.** 22.34% and 17.17% and 25.59%

**Q.** And the “Lp-PLA2 Activity Radiometric” value (Lp-PLA2 [2]; 0.5 hr after dosing)?
**A.** 65.24 nmol/min/mL and 50.18 nmol/min/mL and 78.40 nmol/min/mL and 22.46 nmol/min/mL and 104.52 nmol/min/mL

**Q.** And the “% Inhibition Radiometric” value (Lp-PLA2 [2]; 1 hr after dosing)?
**A.** 77.76% and 60.11%

**Q.** And the “Lp-PLA2 Activity Radiometric” value (Lp-PLA2 [2]; 1 hr after dosing)?
**A.** 15.85 nmol/min/mL and 26.80 nmol/min/mL and 18.68 nmol/min/mL and 10.60 nmol/min/mL and 30.87 nmol/min/mL

**Q.** And the “Lp-PLA2 Activity Radiometric” value (Lp-PLA2 [2]; 2 hr after dosing)?
**A.** 10.00 nmol/min/mL

**Q.** And the “Lp-PLA2 Activity Radiometric” value (Lp-PLA2 [2]; 4 hr after dosing)?
**A.** 10.02 nmol/min/mL and 20.76 nmol/min/mL and 14.37 nmol/min/mL and 11.47 nmol/min/mL
